Test results from patent US20190374627A1, “TARGET PEPTIDES FOR CANCER THERAPY AND DIAGNOSTICS” (priority 2016, published 2019).
Square brackets hold non-standard residues; d marks the D form. Ends that are not written are not given here. pY = N[C@@H](Cc1ccc(OP(=O)(O)O)cc1)C(=O)O; pS = N[C@@H](COP(=O)(O)O)C(=O)O

Key:
CD8^+ T cells (PBMCs) = assay: Intracellular cytokine staining (ICS) of PBMCs after 7 days of stimulation with MHC-I-pP (healthy donors, HH patients); type: cell-based, human; conditions: for Reactive CD8^+ T cell population, HH2: HH patient HH2; for Reactive CD8^+ T cell population, HH3: HH patient HH3; for Reactive CD8^+ T cell population, HH6: HH patient HH6; for Reactive CD8^+ T cell population, HH8: HH patient HH8; for Reactive CD8^+ T cell population, HD1: Healthy donor HD1; for Reactive CD8^+ T cell population, HD4: Healthy donor HD4; for Reactive CD8^+ T cell population, HD5: Healthy donor HD5
Method: From this, CD8^+ T cell responses against newly identified MHC class I-associated phosphopeptides in healthy individuals and patients with chronic liver disease were investigated. Twenty-one of the newly identified HCC-associated HLA-A*0201-restricted phosphopeptides were selected (see Table 17) for further immunological testing in HLA-A*0201 positive patients. MHC-I-pP-specific cytotoxic CD8^+ T cell responses (ppCTL) were assessed using intracellular cytokine staining (ICS) and several cytokines and surface markers were assessed in parallel. After 7 days of stimulation with the respective MHC-I-pP and no other cytokines, CD3- and CD8-expressing T cells were stained for at least two different cytokines (IFN-γ, TNF-α) and when required CD107a expression as a marker for their cytotoxic potential.
First, peripheral blood mononuclear cells (PBMCs) from healthy donors and patients with hereditary hemochromatosis (HH) were analyzed. HH is a chronic liver disease characterized by excessive intestinal absorption of dietary iron resulting in a pathological deposition of iron in the liver. PBMCs or lymphocytes from liver tissue were extracted and specifically stimulated with (phospho-) peptides for 7 days before intracellular cytokine staining (ICS). Doublets and dead cells, using a fixable viability dye, were excluded. Lymphocytes were gated on CD3^+ and CD8^+ double positive cells and were analysed for expression of IFNγ, TNFα-, and CD107a.

[1] = system: expanded TIL / IHL cultures; assay: ICS for MHC-I-pP reactivity of liver-derived lymphocyte cultures after unspecific rapid expansion protocol (REP); type: cell-based, human
[2] = system: expanded lymphocyte cultures from deceased donor livers, cirrhotic livers and HCC; assay: ICS for MHC-I-pP reactivity of liver-derived lymphocyte cultures after phosphopeptide-specific expansion; type: cell-based, human; conditions: for ppCTL response, Deceased Donor Liver Do 2 / ppCTL response, Deceased Donor Liver Do 3 / ppCTL response, Deceased Donor Liver Do 4 / ppCTL response, Deceased Donor Liver Do 6 / ppCTL response, End-stage Liver Cirrhosis IHL 11 / ppCTL response, End-stage Liver Cirrhosis IHL 12 / ppCTL response, End-stage Liver Cirrhosis IHL 13 / ppCTL response, End-stage Liver Cirrhosis IHL 15 / ppCTL response, HCC Distal HCC 1 / ppCTL response, HCC Tumor HCC 1 / ppCTL response, HCC Distal HCC 4 / ppCTL response, HCC Distal HCC 9 / ppCTL response, HCC Tumor HCC 9 / ppCTL response, HCC Distal HCC 12: pP-specifically expanded culture; for ppCTL response, HCC Distal HCC 1: HCC 1 Distal; for ppCTL response, HCC Tumor HCC 1: HCC 1 Tumor; for ppCTL response, HCC Distal HCC 4: HCC 4 Distal; for ppCTL response, HCC Distal HCC 9: HCC 9 Distal; for ppCTL response, HCC Tumor HCC 9: HCC 9 Tumor; for ppCTL response, HCC Distal HCC 12: HCC 12 Distal
[3] = system: unexpanded lymphocyte cultures (CD8^+ T cells); assay: ICS for MHC-I-pP reactivity of lymphocyte cultures without expansion (Table 23, No Expansion); conditions: HH6

| Substance | Reactive CD8^+ T cell population, HH2 (CD8^+ T cells (PBMCs)) | Reactive CD8^+ T cell population, HH3 (CD8^+ T cells (PBMCs)) | Reactive CD8^+ T cell population, HH6 (CD8^+ T cells (PBMCs)) | Reactive CD8^+ T cell population, HH8 (CD8^+ T cells (PBMCs)) | Reactive CD8^+ T cell population, HD1 (CD8^+ T cells (PBMCs)) | Reactive CD8^+ T cell population, HD4 (CD8^+ T cells (PBMCs)) | Reactive CD8^+ T cell population, HD5 (CD8^+ T cells (PBMCs)) | Reactive CD8^+ T cells, Non-specific Expansion, Do2 [1] | Reactive CD8^+ T cells, Non-specific Expansion, Do4 [1] | Reactive CD8^+ T cells, Non-specific Expansion, HH6 [1] | Reactive CD8^+ T cells, pP-specific Expansion, Do2 [2] | Reactive CD8^+ T cells, pP-specific Expansion, Do4 [2] | Reactive CD8^+ T cells, pP-specific Expansion, HH6 [2] | ppCTL response, Deceased Donor Liver Do 2 [2] | ppCTL response, Deceased Donor Liver Do 3 [2] | ppCTL response, Deceased Donor Liver Do 4 [2] | ppCTL response, Deceased Donor Liver Do 6 [2] | ppCTL response, End-stage Liver Cirrhosis IHL 11 [2] | ppCTL response, End-stage Liver Cirrhosis IHL 12 [2] | ppCTL response, End-stage Liver Cirrhosis IHL 13 [2] | other results |
| --- | --- | --- | --- | --- | --- | --- | --- | --- | --- | --- | --- | --- | --- | --- | --- | --- | --- | --- | --- | --- | --- |
| AVVsPPALHNA: BRD4 phosphopeptide, HLA-A*0201 (AVV[pS]PPALHNA; listed as Homo sapiens) | 0 (<0.25% reactive CD8^-+ T cells) | 0 (<0.25% reactive CD8^-+ T cells) | 2 (2.5-5.0% reactive CD8^-+ T cells) | 0 (<0.25% reactive CD8^-+ T cells) | 0 (<0.25% reactive CD8^-+ T cells) | 0 (<0.25% reactive CD8^-+ T cells) | 0 (<0.25% reactive CD8^-+ T cells) | 0 (<0.25% reactive CD8^-+ T cells) | 0 (<0.25% reactive CD8^-+ T cells) | 0 (<0.25% reactive CD8^-+ T cells) | 0 (<0.25% reactive CD8^-+ T cells) | 0 (<0.25% reactive CD8^-+ T cells) | 2 (2.5-5.0% reactive CD8^-+ T cells) | 0 (<0.25% reactive CD8-+ T cells) | 0 (<0.25% reactive CD8-+ T cells) | 0 (<0.25% reactive CD8-+ T cells) | 0 (<0.25% reactive CD8-+ T cells) | 0 (<0.25% reactive CD8-+ T cells) | 0 (<0.25% reactive CD8-+ T cells) | 0 (<0.25% reactive CD8-+ T cells) | ppCTL response, End-stage Liver Cirrhosis IHL 15 [2]: 0 (<0.25% reactive CD8-+ T cells); ppCTL response, HCC Distal HCC 1 [2]: 0 (<0.25% reactive CD8-+ T cells); ppCTL response, HCC Tumor HCC 1 [2]: 0 (<0.25% reactive CD8-+ T cells); ppCTL response, HCC Distal HCC 4 [2]: 0 (<0.25% reactive CD8-+ T cells); ppCTL response, HCC Distal HCC 9 [2]: 0 (<0.25% reactive CD8-+ T cells); ppCTL response, HCC Tumor HCC 9 [2]: 1 (0.25-2.5% reactive CD8-+ T cells); ppCTL response, HCC Distal HCC 12 [2]: 0 (<0.25% reactive CD8-+ T cells); Reactive CD8^+ T cells, No Expansion, HH6 [3]: 2 (2.5-5.0% reactive CD8^-+ T cells) |
| RLSsPLHFV: FAM134A phosphopeptide, HLA-A*0201 (RLS[pS]PLHFV; listed as Homo sapiens) | 1 (0.25-2.5% reactive CD8^-+ T cells) | 0 (<0.25% reactive CD8^-+ T cells) | 0 (<0.25% reactive CD8^-+ T cells) | 0 (<0.25% reactive CD8^-+ T cells) | 0 (<0.25% reactive CD8^-+ T cells) | 0 (<0.25% reactive CD8^-+ T cells) | 0 (<0.25% reactive CD8^-+ T cells) | 0 (<0.25% reactive CD8^-+ T cells) | 0 (<0.25% reactive CD8^-+ T cells) | 0 (<0.25% reactive CD8^-+ T cells) | 0 (<0.25% reactive CD8^-+ T cells) | 0 (<0.25% reactive CD8^-+ T cells) | 0 (<0.25% reactive CD8^-+ T cells) | 0 (<0.25% reactive CD8-+ T cells) | 0 (<0.25% reactive CD8-+ T cells) | 0 (<0.25% reactive CD8-+ T cells) | 0 (<0.25% reactive CD8-+ T cells) | 0 (<0.25% reactive CD8-+ T cells) | 0 (<0.25% reactive CD8-+ T cells) | 0 (<0.25% reactive CD8-+ T cells) | Reactive CD8^+ T cell population, HH11 (CD8^+ T cells (PBMCs); HH patient HH11): 0 (<0.25% reactive CD8^-+ T cells); ppCTL response, End-stage Liver Cirrhosis IHL 15 [2]: 0 (<0.25% reactive CD8-+ T cells); ppCTL response, HCC Distal HCC 1 [2]: 0 (<0.25% reactive CD8-+ T cells); ppCTL response, HCC Tumor HCC 1 [2]: 0 (<0.25% reactive CD8-+ T cells); ppCTL response, HCC Distal HCC 4 [2]: 0 (<0.25% reactive CD8-+ T cells); ppCTL response, HCC Distal HCC 9 [2]: 0 (<0.25% reactive CD8-+ T cells); ppCTL response, HCC Tumor HCC 9 [2]: 0 (<0.25% reactive CD8-+ T cells); ppCTL response, HCC Distal HCC 12 [2]: 0 (<0.25% reactive CD8-+ T cells); Reactive CD8^+ T cells, No Expansion, HH6 [3]: 0 (<0.25% reactive CD8^-+ T cells) |
| yLQSRYYRA: HIPK3 phosphopeptide, HLA-A*0201 ([pY]LQSRYYRA; listed as Homo sapiens) | 0 (<0.25% reactive CD8^-+ T cells) | 0 (<0.25% reactive CD8^-+ T cells) | 1 (0.25-2.5% reactive CD8^-+ T cells) | 0 (<0.25% reactive CD8^-+ T cells) | 0 (<0.25% reactive CD8^-+ T cells) | 0 (<0.25% reactive CD8^-+ T cells) | 0 (<0.25% reactive CD8^-+ T cells) | 0 (<0.25% reactive CD8^-+ T cells) | 0 (<0.25% reactive CD8^-+ T cells) | 0 (<0.25% reactive CD8^-+ T cells) | 2 (2.5-5.0% reactive CD8^-+ T cells) | 0 (<0.25% reactive CD8^-+ T cells) | 0 (<0.25% reactive CD8^-+ T cells) | 2 (2.5-5.0% reactive CD8-+ T cells) | 0 (<0.25% reactive CD8-+ T cells) | 0 (<0.25% reactive CD8-+ T cells) | 0 (<0.25% reactive CD8-+ T cells) | 0 (<0.25% reactive CD8-+ T cells) | 0 (<0.25% reactive CD8-+ T cells) | 0 (<0.25% reactive CD8-+ T cells) | ppCTL response, End-stage Liver Cirrhosis IHL 15 [2]: 0 (<0.25% reactive CD8-+ T cells); ppCTL response, HCC Distal HCC 1 [2]: 0 (<0.25% reactive CD8-+ T cells); ppCTL response, HCC Tumor HCC 1 [2]: 0 (<0.25% reactive CD8-+ T cells); ppCTL response, HCC Distal HCC 4 [2]: 0 (<0.25% reactive CD8-+ T cells); ppCTL response, HCC Distal HCC 9 [2]: 0 (<0.25% reactive CD8-+ T cells); ppCTL response, HCC Tumor HCC 9 [2]: 1 (0.25-2.5% reactive CD8-+ T cells); ppCTL response, HCC Distal HCC 12 [2]: 0 (<0.25% reactive CD8-+ T cells); Reactive CD8^+ T cells, No Expansion, HH6 [3]: 1 (0.25-2.5% reactive CD8^-+ T cells) |
